Measurements published in ChEMBL document CHEMBL1201862, “PubChem BioAssay data set” (2004).
Activity calls are given as the source filed them.

What was measured:
[1] = Vero E6 cell cytotoxicity, dose response, cytotoxicity control for non-replicating M. tuberculosis project, secondary assay (AID 492998); assay type: functional, VeroE6; settings: Vero C1008
[2] = Luminescence Cell-Based Dose Retest to Confirm Inhibitors of Cancer Stem Cells. [Related pubchem assays (depositor defined):AID2717, AID2721]; assay type: functional; settings: Homo sapiens
[3] = biological target: T1, Microphthalmia-associated transcription factor (Homo sapiens, UniProt O75030); test: reducers of TRPM1 reporter luminescence, concentration series – cell-based, SK-MEL-5, cherry-picked, set 3, MITF inhibitor project, dose response (AID 493073); assay type: functional;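 note: SK-MEL-5 melanoma cells with luciferase driven by the MITF target TRPM1 promoter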
T1 sequence (O75030 whole entry): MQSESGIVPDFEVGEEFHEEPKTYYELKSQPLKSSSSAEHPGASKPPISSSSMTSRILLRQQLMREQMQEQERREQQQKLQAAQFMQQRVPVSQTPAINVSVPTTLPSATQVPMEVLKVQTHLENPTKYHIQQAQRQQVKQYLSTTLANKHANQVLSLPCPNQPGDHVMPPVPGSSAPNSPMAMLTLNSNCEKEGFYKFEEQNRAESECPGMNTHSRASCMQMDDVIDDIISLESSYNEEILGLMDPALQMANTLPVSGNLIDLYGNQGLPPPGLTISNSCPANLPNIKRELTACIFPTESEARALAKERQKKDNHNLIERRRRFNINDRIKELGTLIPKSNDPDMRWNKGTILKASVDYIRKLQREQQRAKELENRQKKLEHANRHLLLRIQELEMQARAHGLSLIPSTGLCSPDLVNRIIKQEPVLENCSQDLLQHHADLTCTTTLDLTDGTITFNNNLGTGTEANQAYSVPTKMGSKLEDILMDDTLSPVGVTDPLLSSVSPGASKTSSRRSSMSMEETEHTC

[4] = test system: A-375; test: proliferation inhibition in MITF-low A375 cells – cell-based, cherry-pick samples, set 2, counter-screen for MITF modulator project, dose response (AID 540335); assay type: functional; settings: Homo sapiens
[5] = THP-1 cell cytotoxicity, dose response, cytotoxicity control for non-replicating M. tuberculosis project (AID 489025); assay type: functional
[6] = HepG2 cell cytotoxicity, dose response, cytotoxicity control for non-replicating M. tuberculosis project (AID 489018); assay type: functional; settings: Mycobacterium tuberculosis
[7] = cells; assay type: functional
[8] = test system: HeLa; test: ATP-based viability loss in HeLa cells – cell-based, CellTiter-Glo luminescence, cherry-pick samples, cytotoxicity control for MITF activator project, dose response (AID 540259); assay type: functional; settings: Homo sapiens
[9] = biological target: T2, Coagulation factor XII (Homo sapiens, UniProt P00748); assay type: functional;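 note: activated factor XIIa alpha cleaving a fluorogenic AMC peptide substrate; inhibitor potency from loss of enzyme activity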
T2 sequence (P00748 whole entry): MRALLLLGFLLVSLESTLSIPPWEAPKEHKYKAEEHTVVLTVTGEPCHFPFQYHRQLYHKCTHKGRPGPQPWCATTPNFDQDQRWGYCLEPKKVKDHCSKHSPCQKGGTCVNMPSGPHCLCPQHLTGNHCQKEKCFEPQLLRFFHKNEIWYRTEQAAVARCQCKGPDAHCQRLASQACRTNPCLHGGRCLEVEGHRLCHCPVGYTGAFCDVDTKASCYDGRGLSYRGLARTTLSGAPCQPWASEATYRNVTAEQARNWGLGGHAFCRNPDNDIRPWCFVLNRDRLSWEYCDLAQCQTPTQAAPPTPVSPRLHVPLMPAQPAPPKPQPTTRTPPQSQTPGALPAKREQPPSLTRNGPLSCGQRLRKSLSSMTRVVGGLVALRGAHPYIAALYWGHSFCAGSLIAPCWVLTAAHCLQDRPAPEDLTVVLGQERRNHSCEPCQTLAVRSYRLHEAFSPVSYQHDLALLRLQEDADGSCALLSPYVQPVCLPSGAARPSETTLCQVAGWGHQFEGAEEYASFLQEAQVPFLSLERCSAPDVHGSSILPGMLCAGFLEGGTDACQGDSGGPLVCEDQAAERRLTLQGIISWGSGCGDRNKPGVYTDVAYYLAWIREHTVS

[10] = biological target: Cytochrome P450 2C19 (Homo sapiens, UniProt P33261); test: Cytochrome panel assay with activity outcomes. Panel member name: p450-cyp2c19 Compounds with AC50 equal or less than 10 uM are considered active; assay type: functional; settings: read-out: AC50
[11] = biological target: T3, Cytochrome P450 2C9 (Homo sapiens, UniProt P11712)
[12] = biological target: Cytochrome P450 3A4 (Homo sapiens, UniProt P08684);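 note: CYP3A4 tested as one member of a cytochrome P450 panel screen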
[13] = biological target: T4, Mannose-6-phosphate isomerase (Homo sapiens, UniProt P34949); test: MPI inhibition at elevated mannose 6-phosphate – biochemical, fluorescence intensity, high mannose 6-phosphate, primary screen (AID 1220)
T4 sequence (P34949 whole entry): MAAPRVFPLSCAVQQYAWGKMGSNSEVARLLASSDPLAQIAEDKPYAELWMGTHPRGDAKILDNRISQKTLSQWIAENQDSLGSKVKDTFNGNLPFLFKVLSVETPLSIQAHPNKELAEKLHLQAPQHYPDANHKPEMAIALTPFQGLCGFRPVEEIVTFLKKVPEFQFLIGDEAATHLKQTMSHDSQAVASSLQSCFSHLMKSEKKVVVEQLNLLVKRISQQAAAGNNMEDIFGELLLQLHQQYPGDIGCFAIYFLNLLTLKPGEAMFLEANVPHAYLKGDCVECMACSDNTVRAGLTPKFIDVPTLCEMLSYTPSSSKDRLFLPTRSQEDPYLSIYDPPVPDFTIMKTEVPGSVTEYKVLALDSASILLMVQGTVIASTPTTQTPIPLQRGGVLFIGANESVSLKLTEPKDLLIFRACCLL

[14] = NIH3T3 cell viability loss – ATP luminescence, mouse fibroblasts, counter-screen, dose response (AID 2010); assay type: functional, cell-based;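 note: cells exposed to compound for about 90 hours before reading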
[15] = Trypanosoma cruzi growth suppression in host cells – NIH3T3 host cells, beta-gal luminescence, confirmation (AID 2044); assay type: functional, cell-based;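 note: intracellular parasites grown in NIH/3T3 mouse fibroblasts as host cells; luminescent beta-galactosidase reporter signal from transgenic T. cruzi replicating inside host cells; inhibitors lower the luminescence signal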
[16] = biological target: Genome polyprotein (dengue virus type 2, UniProt P29990); test: flavivirus cap methylation enzyme inhibition – biochemical, confirmation dose response, primary screen (AID 588689); assay type: functional
[17] = biological target: T5, Voltage-gated N-type calcium channel alpha-1B subunit/Amyloid beta A4 precursor protein-binding family A member 1 (Homo sapiens, UniProt Q00975+Q02410); assay type: protein assay
[18] = biological target: Induced myeloid leukemia cell differentiation protein Mcl-1 (Homo sapiens, UniProt Q07820); assay type: functional
[19] = biological target: T5, Voltage-gated N-type calcium channel alpha-1B subunit/Amyloid beta A4 precursor protein-binding family A member 1; assay type: protein assay; remark: listed apart in the source
[20] = biological target: T6, Carboxy-terminal domain RNA polymerase II polypeptide A small phosphatase 1 (Homo sapiens, UniProt Q9GZU7); test: CTDSP1 inhibitors, concentration-response, biochemical, absorbance readout, ultra-high-throughput screen actives (AID 540297); assay type: functional
T6 sequence (Q9GZU7 whole entry): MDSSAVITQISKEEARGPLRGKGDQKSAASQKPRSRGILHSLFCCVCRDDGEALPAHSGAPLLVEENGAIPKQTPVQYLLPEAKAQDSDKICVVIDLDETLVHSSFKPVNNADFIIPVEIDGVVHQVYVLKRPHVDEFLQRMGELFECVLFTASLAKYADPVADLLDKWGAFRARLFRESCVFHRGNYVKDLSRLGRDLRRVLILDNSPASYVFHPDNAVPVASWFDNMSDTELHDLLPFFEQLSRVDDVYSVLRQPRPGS

[21] = biological target: T7, Hexokinase HKDC1 (Homo sapiens, UniProt Q2TB90); test: inhibition of HKDC1 glucose phosphorylation – biochemical, W721R variant, dose response (AID 504729); assay type: functional
T7 sequence (Q2TB90 whole entry): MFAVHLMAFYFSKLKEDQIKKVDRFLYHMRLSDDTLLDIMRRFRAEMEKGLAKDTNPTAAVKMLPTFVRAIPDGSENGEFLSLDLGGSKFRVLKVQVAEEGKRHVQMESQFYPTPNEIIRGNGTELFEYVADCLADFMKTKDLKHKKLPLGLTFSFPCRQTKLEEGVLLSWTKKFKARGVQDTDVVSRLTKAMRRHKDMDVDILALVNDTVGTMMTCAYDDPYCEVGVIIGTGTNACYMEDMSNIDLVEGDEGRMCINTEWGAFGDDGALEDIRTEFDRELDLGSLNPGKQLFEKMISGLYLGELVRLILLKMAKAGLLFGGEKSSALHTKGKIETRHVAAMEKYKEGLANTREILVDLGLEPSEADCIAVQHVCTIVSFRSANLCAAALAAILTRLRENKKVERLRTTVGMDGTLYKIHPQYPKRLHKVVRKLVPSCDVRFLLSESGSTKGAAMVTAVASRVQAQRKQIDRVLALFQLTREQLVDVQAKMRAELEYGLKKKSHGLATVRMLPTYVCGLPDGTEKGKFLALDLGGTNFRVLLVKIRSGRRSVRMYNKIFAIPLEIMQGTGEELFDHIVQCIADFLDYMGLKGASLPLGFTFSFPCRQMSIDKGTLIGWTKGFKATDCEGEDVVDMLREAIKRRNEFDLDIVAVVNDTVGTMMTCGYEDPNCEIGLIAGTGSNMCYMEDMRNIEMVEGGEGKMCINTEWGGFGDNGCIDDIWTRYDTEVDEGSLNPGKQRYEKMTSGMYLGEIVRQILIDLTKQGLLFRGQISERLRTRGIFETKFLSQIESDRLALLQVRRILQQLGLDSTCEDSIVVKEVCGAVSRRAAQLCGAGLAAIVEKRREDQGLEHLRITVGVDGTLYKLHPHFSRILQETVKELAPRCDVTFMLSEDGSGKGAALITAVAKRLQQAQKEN

[22] = test system: Escherichia coli; test: microbe, parasite or virus in culture
[23] = test system: A-375; test: MITF: Counter assay: A375 proliferation Measured in Cell-Based System Using Plate Reader - 2084-03_Inhibitor_Dose_DryPowder_Activity. [Related pubchem assays (depositor defined):AID488944]; assay type: functional; settings: Homo sapiens
[24] = biological target: T3, Cytochrome P450 2C9; remark: listed apart in the source
[25] = biological target: T8, Rac GTPase-activating protein 1 (Homo sapiens, UniProt Q9H0H5); test: blockers of MgcRacGAP-driven Rac1 GTP hydrolysis – biochemical, ADP Hunter fluorescence, primary and confirmatory, confirmation (AID 624330); assay type: functional
T8 sequence (Q9H0H5 whole entry): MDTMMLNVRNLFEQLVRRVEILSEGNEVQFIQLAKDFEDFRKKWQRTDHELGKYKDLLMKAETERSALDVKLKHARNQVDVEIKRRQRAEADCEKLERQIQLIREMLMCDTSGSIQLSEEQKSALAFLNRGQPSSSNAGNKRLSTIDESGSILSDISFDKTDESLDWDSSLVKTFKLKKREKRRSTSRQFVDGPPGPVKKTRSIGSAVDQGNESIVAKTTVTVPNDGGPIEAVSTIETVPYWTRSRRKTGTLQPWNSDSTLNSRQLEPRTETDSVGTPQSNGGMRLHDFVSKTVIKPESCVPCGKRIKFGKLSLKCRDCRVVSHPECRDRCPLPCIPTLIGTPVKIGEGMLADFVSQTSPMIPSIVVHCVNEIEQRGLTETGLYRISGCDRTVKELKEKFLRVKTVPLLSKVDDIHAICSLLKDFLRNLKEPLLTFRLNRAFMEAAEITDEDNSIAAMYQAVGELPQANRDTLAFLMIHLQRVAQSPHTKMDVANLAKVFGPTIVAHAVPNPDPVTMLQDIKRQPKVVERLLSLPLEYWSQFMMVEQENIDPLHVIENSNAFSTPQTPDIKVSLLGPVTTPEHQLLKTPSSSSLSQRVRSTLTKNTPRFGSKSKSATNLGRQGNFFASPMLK

Sequence of Cytochrome P450 3A4 (P08684 whole entry): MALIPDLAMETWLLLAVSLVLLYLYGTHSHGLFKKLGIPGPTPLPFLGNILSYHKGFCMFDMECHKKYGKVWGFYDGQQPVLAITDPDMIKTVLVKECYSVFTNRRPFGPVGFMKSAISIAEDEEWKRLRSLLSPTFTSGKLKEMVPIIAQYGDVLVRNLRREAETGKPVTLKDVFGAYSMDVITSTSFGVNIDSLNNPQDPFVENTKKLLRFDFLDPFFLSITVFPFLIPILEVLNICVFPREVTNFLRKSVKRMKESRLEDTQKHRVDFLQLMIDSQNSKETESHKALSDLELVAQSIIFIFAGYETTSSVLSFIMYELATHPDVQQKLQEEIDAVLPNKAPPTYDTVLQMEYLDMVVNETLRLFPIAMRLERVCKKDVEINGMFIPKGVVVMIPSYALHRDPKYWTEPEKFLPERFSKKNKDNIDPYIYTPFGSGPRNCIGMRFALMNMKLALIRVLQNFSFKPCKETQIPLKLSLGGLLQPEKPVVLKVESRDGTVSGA
T3 sequence (P11712 whole entry): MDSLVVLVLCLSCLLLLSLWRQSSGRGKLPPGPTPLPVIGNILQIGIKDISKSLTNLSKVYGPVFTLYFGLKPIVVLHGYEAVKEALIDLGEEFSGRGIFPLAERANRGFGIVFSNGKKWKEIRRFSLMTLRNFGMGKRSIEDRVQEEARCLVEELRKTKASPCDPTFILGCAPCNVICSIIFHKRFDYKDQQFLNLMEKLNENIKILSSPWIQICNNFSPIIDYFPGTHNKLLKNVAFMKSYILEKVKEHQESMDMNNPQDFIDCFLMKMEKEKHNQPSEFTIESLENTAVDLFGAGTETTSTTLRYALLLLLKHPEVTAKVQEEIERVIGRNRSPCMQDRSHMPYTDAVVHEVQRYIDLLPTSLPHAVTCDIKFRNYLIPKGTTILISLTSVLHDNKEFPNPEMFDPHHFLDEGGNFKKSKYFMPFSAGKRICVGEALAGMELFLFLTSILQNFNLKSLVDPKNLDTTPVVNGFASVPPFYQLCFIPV
T5 sequence (Q00975 whole entry): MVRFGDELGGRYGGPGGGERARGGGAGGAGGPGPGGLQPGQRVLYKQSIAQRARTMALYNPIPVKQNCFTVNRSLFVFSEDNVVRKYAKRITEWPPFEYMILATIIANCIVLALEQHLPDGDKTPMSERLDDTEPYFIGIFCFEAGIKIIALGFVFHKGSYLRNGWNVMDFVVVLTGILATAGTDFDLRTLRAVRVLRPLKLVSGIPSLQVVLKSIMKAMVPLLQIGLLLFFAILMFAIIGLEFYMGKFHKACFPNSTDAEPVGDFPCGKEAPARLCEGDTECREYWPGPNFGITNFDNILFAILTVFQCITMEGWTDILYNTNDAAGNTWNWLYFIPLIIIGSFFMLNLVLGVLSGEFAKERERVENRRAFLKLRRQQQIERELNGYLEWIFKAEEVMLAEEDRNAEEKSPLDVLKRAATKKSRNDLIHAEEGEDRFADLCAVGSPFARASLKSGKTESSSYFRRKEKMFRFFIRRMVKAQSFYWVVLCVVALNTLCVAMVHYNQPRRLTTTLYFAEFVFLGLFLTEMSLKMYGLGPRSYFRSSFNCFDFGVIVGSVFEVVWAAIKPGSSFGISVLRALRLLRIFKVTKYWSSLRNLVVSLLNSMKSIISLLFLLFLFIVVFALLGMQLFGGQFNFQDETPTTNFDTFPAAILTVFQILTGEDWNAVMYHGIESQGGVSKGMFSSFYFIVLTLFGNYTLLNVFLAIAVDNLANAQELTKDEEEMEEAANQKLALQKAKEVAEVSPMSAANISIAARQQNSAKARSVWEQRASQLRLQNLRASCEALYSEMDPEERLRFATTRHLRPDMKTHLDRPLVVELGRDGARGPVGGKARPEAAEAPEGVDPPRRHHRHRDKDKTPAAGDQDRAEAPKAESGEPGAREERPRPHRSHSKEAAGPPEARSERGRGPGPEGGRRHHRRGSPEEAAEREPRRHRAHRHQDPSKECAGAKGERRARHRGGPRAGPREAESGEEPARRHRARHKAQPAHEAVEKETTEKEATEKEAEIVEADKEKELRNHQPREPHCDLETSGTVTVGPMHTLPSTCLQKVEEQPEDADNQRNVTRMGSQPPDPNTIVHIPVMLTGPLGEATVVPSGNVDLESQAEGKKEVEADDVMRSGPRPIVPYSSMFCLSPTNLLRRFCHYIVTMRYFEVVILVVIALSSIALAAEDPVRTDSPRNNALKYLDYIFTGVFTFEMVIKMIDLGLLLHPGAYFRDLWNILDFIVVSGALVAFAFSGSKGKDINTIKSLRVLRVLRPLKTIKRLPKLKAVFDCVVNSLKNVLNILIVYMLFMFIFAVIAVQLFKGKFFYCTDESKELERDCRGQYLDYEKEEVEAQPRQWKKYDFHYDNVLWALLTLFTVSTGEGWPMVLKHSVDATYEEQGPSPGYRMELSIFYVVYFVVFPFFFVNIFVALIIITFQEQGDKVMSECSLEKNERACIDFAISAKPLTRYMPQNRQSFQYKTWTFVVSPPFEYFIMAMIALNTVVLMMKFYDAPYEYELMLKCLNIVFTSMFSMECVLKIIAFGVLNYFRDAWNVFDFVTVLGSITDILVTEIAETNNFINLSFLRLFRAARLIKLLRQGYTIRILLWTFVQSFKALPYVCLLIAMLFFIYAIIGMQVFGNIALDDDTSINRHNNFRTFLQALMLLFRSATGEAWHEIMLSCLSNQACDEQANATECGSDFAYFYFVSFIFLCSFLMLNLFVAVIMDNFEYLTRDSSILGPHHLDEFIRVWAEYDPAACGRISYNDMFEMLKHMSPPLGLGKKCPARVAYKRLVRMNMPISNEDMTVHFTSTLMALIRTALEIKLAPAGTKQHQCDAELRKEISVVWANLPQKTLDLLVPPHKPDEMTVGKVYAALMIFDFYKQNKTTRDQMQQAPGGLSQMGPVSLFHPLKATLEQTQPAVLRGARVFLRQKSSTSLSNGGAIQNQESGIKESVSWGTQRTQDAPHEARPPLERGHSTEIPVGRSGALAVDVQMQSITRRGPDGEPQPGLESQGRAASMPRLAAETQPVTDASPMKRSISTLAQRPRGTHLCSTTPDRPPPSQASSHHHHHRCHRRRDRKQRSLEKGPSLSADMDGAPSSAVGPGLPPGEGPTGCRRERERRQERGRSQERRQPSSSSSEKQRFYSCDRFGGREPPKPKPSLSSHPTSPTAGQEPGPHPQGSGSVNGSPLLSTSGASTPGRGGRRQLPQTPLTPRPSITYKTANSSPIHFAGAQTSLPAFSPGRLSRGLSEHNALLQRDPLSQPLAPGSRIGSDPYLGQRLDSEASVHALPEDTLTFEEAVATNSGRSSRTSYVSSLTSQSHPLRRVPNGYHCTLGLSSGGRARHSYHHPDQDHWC
T5 sequence (Q02410 whole entry): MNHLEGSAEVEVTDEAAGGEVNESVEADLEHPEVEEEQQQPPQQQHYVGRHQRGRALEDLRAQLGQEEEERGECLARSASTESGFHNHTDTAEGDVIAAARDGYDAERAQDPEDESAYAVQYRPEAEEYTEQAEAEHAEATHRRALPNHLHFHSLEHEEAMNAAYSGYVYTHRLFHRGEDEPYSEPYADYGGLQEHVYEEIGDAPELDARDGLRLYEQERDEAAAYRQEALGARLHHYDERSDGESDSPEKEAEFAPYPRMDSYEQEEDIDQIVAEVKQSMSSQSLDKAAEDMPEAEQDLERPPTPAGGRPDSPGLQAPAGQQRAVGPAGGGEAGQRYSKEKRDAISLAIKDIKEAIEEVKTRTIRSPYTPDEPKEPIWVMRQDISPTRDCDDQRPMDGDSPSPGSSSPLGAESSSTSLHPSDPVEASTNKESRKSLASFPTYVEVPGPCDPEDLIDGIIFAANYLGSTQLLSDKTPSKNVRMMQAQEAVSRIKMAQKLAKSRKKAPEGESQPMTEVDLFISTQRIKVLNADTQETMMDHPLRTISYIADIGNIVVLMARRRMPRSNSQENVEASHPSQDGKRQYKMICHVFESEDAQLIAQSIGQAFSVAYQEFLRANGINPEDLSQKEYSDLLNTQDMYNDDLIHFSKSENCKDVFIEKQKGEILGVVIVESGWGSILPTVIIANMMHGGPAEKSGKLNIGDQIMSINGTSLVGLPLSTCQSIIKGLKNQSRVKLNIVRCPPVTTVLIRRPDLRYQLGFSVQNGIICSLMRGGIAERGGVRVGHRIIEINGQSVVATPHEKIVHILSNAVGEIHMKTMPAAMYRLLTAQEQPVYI
Sequence of Induced myeloid leukemia cell differentiation protein Mcl-1 (Q07820 whole entry): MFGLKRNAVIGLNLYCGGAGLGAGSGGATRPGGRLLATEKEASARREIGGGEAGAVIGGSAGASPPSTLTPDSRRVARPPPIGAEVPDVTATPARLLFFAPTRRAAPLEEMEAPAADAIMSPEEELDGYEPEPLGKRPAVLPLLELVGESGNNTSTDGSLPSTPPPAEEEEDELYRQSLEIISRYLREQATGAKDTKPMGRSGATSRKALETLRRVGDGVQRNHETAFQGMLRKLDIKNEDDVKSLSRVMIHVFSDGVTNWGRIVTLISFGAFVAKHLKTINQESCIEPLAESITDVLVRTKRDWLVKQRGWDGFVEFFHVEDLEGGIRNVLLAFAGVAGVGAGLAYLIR
Sequence of Cytochrome P450 2C19 (P33261 whole entry): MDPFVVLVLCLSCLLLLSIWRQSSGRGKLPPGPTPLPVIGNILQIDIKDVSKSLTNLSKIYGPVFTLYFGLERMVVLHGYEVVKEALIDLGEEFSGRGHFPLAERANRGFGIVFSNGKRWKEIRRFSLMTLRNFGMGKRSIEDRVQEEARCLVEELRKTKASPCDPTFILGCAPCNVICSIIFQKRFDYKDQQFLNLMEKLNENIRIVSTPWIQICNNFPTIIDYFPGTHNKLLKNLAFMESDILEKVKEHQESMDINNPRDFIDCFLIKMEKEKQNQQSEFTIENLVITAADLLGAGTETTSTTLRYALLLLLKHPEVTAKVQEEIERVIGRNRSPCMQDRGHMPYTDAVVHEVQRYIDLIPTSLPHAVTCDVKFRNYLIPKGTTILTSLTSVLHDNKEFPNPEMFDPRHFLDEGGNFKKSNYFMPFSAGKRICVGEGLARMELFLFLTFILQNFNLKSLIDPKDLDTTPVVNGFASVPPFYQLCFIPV

For `CC1CCCC(NCC(O)COC(c2ccc(F)cc2)c2ccc(F)cc2)C1C` (centres undefined), the CC50 [1] was > 20 µM (active), the AC50 [2] was 6.35 µM (active) and the AC50 [3] was 10.8 µM (active). For the same compound, the AC50 [4] was 20.2 µM (active), the CC50 [5] was 15.8 µM (active) and the CC50 [6] was 16.1 µM (active). For the same compound, the IC50 [7] was 11.4 µM (active).
For `C/C(=N\Nc1ccccn1)c1ccc(C(C)C)cc1`, the AC50 [8] was 46.7 µM (active).
With `CCN(c1ccccc1)S(=O)(=O)c1ccc(C(=O)Nc2nnc(COC)o2)cc1` the IC50 [9] was > 50 µM (inactive).
For `O=C(O)c1ccc(NCc2nc3ccccc3n2Cc2ccccc2)cc1`, the IC50 [9] was > 50 µM (inactive).
For `Cc1ccc2c(Cl)c(C(=O)Nc3cccnc3)sc2c1`, the AC50 [8] was 46.7 µM (active).
With `CCCC(=O)Nc1nc2nc(-c3ccccc3)cc(-c3ccccc3)n2n1` the AC50 [10] was 11.2 µM (inconclusive), the AC50 [11] was 0.0112 µM (inconclusive) and the AC50 [12] was “inconclusive”.
In the case of `CCO/C(O)=C(/C)C1=NC(C)(C)Cc2ccccc21`, the IC50 [9] is reported as > 50 µM (inactive), the IC50 [13] is reported as 37.9 µM (active) and the EC50 [14] is reported as > 60 µM (not active). The EC50 [15] was 10.7 µM (active).
In the case of `CCC1=NN2C(=N)/C(=C\c3ccc(OCc4cc(=O)n5nc(CC)sc5n4)c(OC)c3)C(=O)N=C2S1`, the IC50 [16] is reported as 61.9 µM (active), the IC50 [17] is reported as > 50 µM (inactive) and the IC50 [18] is reported as 2.95 µM (active). For the same compound, the IC50 [19] was > 56.8 µM (not active), the IC50 [20] was 5.99 µM (active) and the IC50 [21] was 41.1 µM (inactive).
In the case of `COc1cccc(-c2cc(O)c3cc(NC(C)=O)ccc3n2)c1`, the AC50 [22] is reported as 28.2 µM (active).
With `CC(=O)/N=C(\N)Nc1nc2cc(C)ccc2o1` the AC50 [23] was > 35 µM (active) and the AC50 [4] was > 35 µM (active).
In the case of `CC(C)c1ccc(OCC(=O)N2CCN(C)CC2)c(Br)c1`, the AC50 [22] is reported as 57.9 µM (active).
With `Cc1cnc(CNc2cc(-c3ccccc3Cl)ncn2)cn1` the AC50 [12] was “inconclusive”.
For `O=C(NCC1CCCO1)c1cc(-c2ccc(Cl)cc2Cl)on1` (centres undefined), the AC50 [24] was “inconclusive”, the AC50 [23] was > 11 µM (active) and the AC50 [4] was > 11 µM (active).
For `CC(C)C(=O)Nc1ccc(Nc2ccccc2)cc1`, the AC50 [22] was 29.9 µM (active) and the IC50 [25] was 51.1 µM (active).
